Measured values taken from US9637473B2, “Acrylamide derivatives as antimalarial agents” (priority 2013, dated 2017).

tested on: P. Falciparum NF54; assay: Plasmodium falciparum in vitro assay ([3H]-hypoxanthine incorporation); type: cell-based; settings: Plasmodium falciparum, Erythrocyte, P. Falciparum NF54, erythrocytic stages in human red blood cells, 50% human serum
Experimental: In Vitro Antimalarial Activity: Plasmodium falciparum In Vitro Assay: In vitro activity against erythrocytic stages of P. Falciparum in human red blood cells is determined using a [^3H]-hypoxanthine incorporation assay. One strain sensitive to all drugs (P. […] After 48 hours, [^3H]-hypoxanthine (0.5 μCi) is added to each well of a plate. The plates are incubated for a further 24 hours under the same conditions then harvested with a Betaplate cell harvester (Wallac) and washed with distilled water. The dried filters are inserted into a plastic foil with 10 mL of scintillation fluid and counted in a Betaplate liquid scintillation counter. IC50 values are calculated from sigmoidal inhibition curves using Microsoft Excel.

| SMILES | IC50 [nM] |
| --- | --- |
| Cc1cc(Nc2ccc(CN(C(=O)/C=C/c3ccc(C(F)(F)F)cc3)C3CCN(CC4CC4)CC3)cc2)ccn1 [Example 31, (E)-N-(1-Cyclopropylmethyl-piperidin-4-yl)-N-[4-(2-methyl-pyridin-4-ylamino)-benzyl]-3-(4-trifluoromethyl-phenyl)-acrylamide] | 39 |
| Cc1cc(Nc2ccc(CN(C(=O)/C=C/c3ccc(C(F)(F)F)cc3)C3CCN(Cc4nc(C)oc4C)CC3)cc2)ccn1 [Example 32, (E)-N-[1-(2,5-Dimethyl-oxazol-4-ylmethyl)-piperidin-4-yl]-N-[4-(2-methyl-pyridin-4-ylamino)-benzyl]-3-(4-trifluoromethyl-phenyl)-acrylamide] | 89 |
| CCCN1CCC(N(Cc2ccc(Nc3ccnc(C)c3)cc2)C(=O)/C=C/c2ccc(C(F)(F)F)cc2)CC1 [Example 33, (E)-N-[4-(2-Methyl-pyridin-4-ylamino)-benzyl]-N-(1-propyl-piperidin-4-yl)-3-(4-trifluoromethyl-phenyl)-acrylamide] | 42 |
| Cc1cc(Nc2ccc(CN(C(=O)/C=C/c3ccc(C(F)(F)F)cc3)C3CCN(Cc4cc(C)on4)CC3)cc2)ccn1 [Example 34, (E)-N-[1-(5-Methyl-isoxazol-3-ylmethyl)-piperidin-4-yl]-N-[4-(2-methyl-pyridin-4-ylamino)-benzyl]-3-(4-trifluoromethyl-phenyl)-acrylamide] | 242 |
| Cc1cc(Nc2ccc(CN(C(=O)/C=C/c3ccc(C(F)(F)F)cc3)C3CCN(Cc4scnc4C)CC3)cc2)ccn1 [Example 35, (E)-N-[4-(2-Methyl-pyridin-4-ylamino)-benzyl]-N-[1-(4-methyl-thiazol-5-ylmethyl)-piperidin-4-yl]-3-(4-trifluoromethyl-phenyl)-acrylamide] | 243 |
| Cc1cc(Nc2ccc(CN(C(=O)/C=C/c3ccc(C(F)(F)F)cc3)C3CCN(Cc4coc(C)n4)CC3)cc2)ccn1 [Example 36, (E)-N-[1-(2-Methyl-oxazol-4-ylmethyl)-piperidin-4-yl]-N-[4-(2-methyl-pyridin-4-ylamino)-benzyl]-3-(4-trifluoromethyl-phenyl)-acrylamide] | 143 |
| Cc1cc(Nc2ccc(CN(C(=O)/C=C/c3ccc(C(F)(F)F)cc3)C3CCN(Cc4ccccc4)CC3)cc2)ccn1 [Example 37, (E)-N-(1-Benzyl-piperidin-4-yl)-N-[4-(2-methyl-pyridin-4-ylamino)-benzyl]-3-(4-trifluoromethyl-phenyl)-acrylamide] | 51 |
| Cc1cc(Nc2ccc(CN(C(=O)/C=C/c3ccc(C(F)(F)F)cc3)C3CCN(Cc4cnc5ccccn45)CC3)cc2)ccn1 [Example 38, (E)-N-(1-Imidazo[1,2-a]pyridin-3-ylmethyl-piperidin-4-yl)-N-[4-(2-methyl-pyridin-4-ylamino)-benzyl]-3-(4-trifluoromethyl-phenyl)-acrylamide] | 100 |
| Cc1cc(Nc2ccc(CN(C(=O)/C=C/c3ccc(C(F)(F)F)cc3)C3CCN(CCC(F)(F)F)CC3)cc2)ccn1 [Example 39, (E)-N-[4-(2-Methyl-pyridin-4-ylamino)-benzyl]-3-(4-trifluoromethyl-phenyl)-N-[1-(3,3,3-trifluoro-propyl)-piperidin-4-yl]-acrylamide] | 155 |
| Cc1cc(Nc2ccc(CN(C(=O)/C=C/c3ccc(C(F)(F)F)cc3)C3CCN(Cc4nccs4)CC3)cc2)ccn1 [Example 40, (E)-N-[4-(2-Methyl-pyridin-4-ylamino)-benzyl]-N-(1-thiazol-2-ylmethyl-piperidin-4-yl)-3-(4-trifluoromethyl-phenyl)-acrylamide] | 341 |
| Cc1cc(Nc2ccc(CN(C(=O)/C=C/c3ccc(C(F)(F)F)cc3)C3CCN(Cc4nccn4C)CC3)cc2)ccn1 [Example 41, (E)-N-[1-(1-Methyl-1H-imidazol-2-ylmethyl)-piperidin-4-yl]-N-[4-(2-methyl-pyridin-4-ylamino)-benzyl]-3-(4-trifluoromethyl-phenyl)-acrylamide] | 207 |
| Cc1cc(Nc2ccc(CN(C(=O)/C=C/c3ccc(C(F)(F)F)cc3)C3CCN(Cc4nc(C)cs4)CC3)cc2)ccn1 [Example 42, (E)-N-[4-(2-Methyl-pyridin-4-ylamino)-benzyl]-N-[1-(4-methyl-thiazol-2-ylmethyl)-piperidin-4-yl]-3-(4-trifluoromethyl-phenyl)-acrylamide] | 343 |
| Cc1cc(Nc2ccc(CN(C(=O)/C=C/c3ccc(C(F)(F)F)cc3)C3CCN(Cc4cc(C)nn4C)CC3)cc2)ccn1 [Example 43, (E)-N-[1-(2,5-Dimethyl-2H-pyrazol-3-ylmethyl)-piperidin-4-yl]-N-[4-(2-methyl-pyridin-4-ylamino)-benzyl]-3-(4-trifluoromethyl-phenyl)-acrylamide] | 84 |
| Cc1cc(Nc2ccc(CN(C(=O)/C=C/c3ccc(C(F)(F)F)cc3)C3CCN(Cc4c(C)noc4C)CC3)cc2)ccn1 [Example 44, (E)-N-[1-(3,5-Dimethyl-isoxazol-4-ylmethyl)-piperidin-4-yl]-N-[4-(2-methyl-pyridin-4-ylamino)-benzyl]-3-(4-trifluoromethyl-phenyl)-acrylamide] | 64 |
| Cc1cc(Nc2ccc(CN(C(=O)/C=C/c3ccc(C(F)(F)F)cc3)C3CCN(Cc4ncn5ccccc45)CC3)cc2)ccn1 [Example 45, (E)-N-(1-Imidazo[1,5-a]pyridin-1-ylmethyl-piperidin-4-yl)-N-[4-(2-methyl-pyridin-4-ylamino)-benzyl]-3-(4-trifluoromethyl-phenyl)-acrylamide] | 168 |
| Cc1cc(Nc2ccc(CN(C(=O)/C=C/c3ccc(C(F)(F)F)cc3)C3CCN(Cc4ncc5ccccn45)CC3)cc2)ccn1 [Example 46, (E)-N-(1-Imidazo[1,5-a]pyridin-3-ylmethyl-piperidin-4-yl)-N-[4-(2-methyl-pyridin-4-ylamino)-benzyl]-3-(4-trifluoromethyl-phenyl)-acrylamide] | 165 |
| Cc1cc(Nc2ccc(CN(C(=O)/C=C/c3ccc(C(F)(F)F)cc3)C3CCN(Cc4ncccn4)CC3)cc2)ccn1 [Example 47, (E)-N-[4-(2-Methyl-pyridin-4-ylamino)-benzyl]-N-(1-pyrimidin-2-ylmethyl-piperidin-4-yl)-3-(4-trifluoromethyl-phenyl)-acrylamide] | 345 |
| Cc1cc(Nc2ccc(CN(C(=O)/C=C/c3ccc(C(F)(F)F)cc3)C3CCN(Cc4cccnc4)CC3)cc2)ccn1 [Example 48, (E)-N-[4-(2-Methyl-pyridin-4-ylamino)-benzyl]-N-(1-pyridin-3-ylmethyl-piperidin-4-yl)-3-(4-trifluoromethyl-phenyl)-acrylamide] | 101 |
| Cc1cc(Nc2ccc(CN(C(=O)/C=C/c3ccc(C(F)(F)F)cc3)C3CCN(Cc4cncnc4)CC3)cc2)ccn1 [Example 49, (E)-N-[4-(2-Methyl-pyridin-4-ylamino)-benzyl]-N-(1-pyrimidin-5-ylmethyl-piperidin-4-yl)-3-(4-trifluoromethyl-phenyl)-acrylamide] | 280 |
| Cc1cc(Nc2ccc(CN(C(=O)/C=C/c3ccc(C(F)(F)F)cc3)C3CCN(Cc4cnn(C)c4)CC3)cc2)ccn1 [Example 50, (E)-N-[1-(1-Methyl-1H-pyrazol-4-ylmethyl)-piperidin-4-yl]-N-[4-(2-methyl-pyridin-4-ylamino)-benzyl]-3-(4-trifluoromethyl-phenyl)-acrylamide] | 91 |
| Cc1cc(Nc2ccc(CN(C(=O)/C=C/c3ccc(C(F)(F)F)cc3)C3CCN(Cc4cnc(C)nc4)CC3)cc2)ccn1 [Example 51, (E)-N-[4-(2-Methyl-pyridin-4-ylamino)-benzyl]-N-[1-(2-methyl-pyrimidin-5-ylmethyl)-piperidin-4-yl]-3-(4-trifluoromethyl-phenyl)-acrylamide] | 268 |
| Cc1cc(Nc2ccc(CN(C(=O)/C=C/c3ccc(C(F)(F)F)cc3)C3CCN(Cc4cnc(C)n4C)CC3)cc2)ccn1 [Example 52, (E)-N-[1-(2,3-Dimethyl-3H-imidazol-4-ylmethyl)-piperidin-4-yl]-N-[4-(2-methyl-pyridin-4-ylamino)-benzyl]-3-(4-trifluoromethyl-phenyl)-acrylamide] | 143 |
| Cc1cc(Nc2ccc(CN(C(=O)/C=C/c3ccc(C(F)(F)F)cc3)C3CCN(Cc4ccc(O)c(CN(C)C)c4)CC3)cc2)ccn1 [Example 53, (E)-N-[1-(3-Dimethylaminomethyl-4-hydroxy-benzyl)-piperidin-4-yl]-N-[4-(2-methyl-pyridin-4-ylamino)-benzyl]-3-(4-trifluoromethyl-phenyl)-acrylamide] | 12 |
| CCN(CC)Cc1cc(CN2CCC(N(Cc3ccc(Nc4ccnc(C)c4)cc3)C(=O)/C=C/c3ccc(C(F)(F)F)cc3)CC2)ccc1O [Example 54, (E)-N-[1-(3-Diethylaminomethyl-4-hydroxy-benzyl)-piperidin-4-yl]-N-[4-(2-methyl-pyridin-4-ylamino)-benzyl]-3-(4-trifluoromethyl-phenyl)-acrylamide] | < 8 |
| CN1CCC(N2CCC[C@H](N(Cc3ccc(N(C)c4ccncc4)cc3)C(=O)/C=C/c3ccc(C(F)(F)F)cc3)C2)CC1 [Example 55, (S,E)-N-(4-(methyl(pyridin-4-yl)amino)benzyl)-N-(1′-methyl-[1,4′-bipiperidin]-3-yl)-3-(4-(trifluoromethyl)phenyl)acrylamide] | 12 |
| CN1CCC(N2CCC[C@@H](N(Cc3ccc(N(C)c4ccncc4)cc3)C(=O)/C=C/c3ccc(C(F)(F)F)cc3)C2)CC1 [Example 56, (R,E)-N-(4-(methyl(pyridin-4-yl)amino)benzyl)-N-(1′-methyl-[1,4′-bipiperidin]-3-yl)-3-(4-(trifluoromethyl)phenyl)acrylamide] | 11 |
| CN(c1ccncc1)c1ccc(CN(C(=O)/C=C/c2ccc(C(F)(F)F)cc2)[C@H]2CCCN(C3CCCC3)C2)cc1 [Example 58, (S,E)-N-(1-cyclopentylpiperidin-3-yl)-N-(4-(methyl(pyridin-4-yl)amino)benzyl)-3-(4-(trifluoromethyl)phenyl)acrylamide] | 149 |
